According to publication doi:10.1101/2022.09.03.506457v1 (biorxiv, 2022):

Molecular target: T1, MjFH (MjFHαβ), holo, Fe-S reconstituted (Methanocaldococcus jannaschii, UniProt Q58034+Q58690)
T1 sequence (Q58690 1-285): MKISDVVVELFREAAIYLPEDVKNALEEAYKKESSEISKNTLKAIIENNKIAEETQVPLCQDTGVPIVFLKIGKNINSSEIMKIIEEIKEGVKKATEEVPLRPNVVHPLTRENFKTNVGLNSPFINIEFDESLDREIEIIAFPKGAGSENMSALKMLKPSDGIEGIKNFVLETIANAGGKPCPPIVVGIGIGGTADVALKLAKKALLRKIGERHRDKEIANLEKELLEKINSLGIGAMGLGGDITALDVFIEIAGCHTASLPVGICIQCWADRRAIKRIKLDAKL
T1 sequence (Q58034 1-195): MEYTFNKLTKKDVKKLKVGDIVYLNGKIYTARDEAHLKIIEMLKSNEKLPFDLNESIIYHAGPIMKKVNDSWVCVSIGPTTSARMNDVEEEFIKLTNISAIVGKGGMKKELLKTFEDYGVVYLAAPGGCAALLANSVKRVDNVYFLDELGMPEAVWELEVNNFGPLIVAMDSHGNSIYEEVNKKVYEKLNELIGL
Format: biochemical
Conditions: pH 7.2, 50 mM Tris-HCl, 70 °C

Km: 2790 ± 397 µM
Compound: O=C(O)/C=C/C(=O)O [fumarate]
